According to US20240003908A1, “POLYOL BIOMARKERS FOR CONGENITAL DISORDERS OF GLYCOSYLATION” (Mayo Foundation for Medical Education and Research, priority 2020, published 2024):

How the values were obtained:
[1] = test system: fibroblasts from PMM2-CDG patients; experiment: Sorbitol and mannitol levels (GC-MS) in fibroblasts treated with epalrestat for 5 days; type: cell-based, human; conditions: fibroblasts from 5 PMM2-CDG patients vs 5 healthy controls, 10 μM epalrestat 5 days
Method: Metabolomics measurements: Fibroblasts derived from patients carrying selected heterozygous mutations in PMM2 (R141H/F119L, R141H/E139K, R141H/N216I, and R141H/F183S) and healthy controls were cultured according to a protocol described elsewhere (Radenkovic et al., Am J Hum Genet. 2019, 104(5):835-846). Cells were grown in specialized medium and treated with 10 μM epalrestat (Iyer et al., supra) for 5 days with two changes of medium. Non-treated fibroblasts from both groups were used as negative controls. Global metabolomic changes were probed by LC/MS.
Polyols also were analyzed by GC due to the inability of LC/MS to distinguish between the same sized metabolites ([…], GLC1P, GLC6P, sorbitol/mannitol/galactitol, etc.) (Radenkovic et al., supra).

[2] = test system: ICAM-1; experiment: ICAM-1 protein (immunoblot) and mRNA (RT-qPCR) in PMM-deficient fibroblasts; type: cell-based, human; conditions: 10 μM epalrestat
Text: Effect of epalrestat on glycosylation biomarkers in vitro: Immunoblotting and RT-qPCR were used to measure Intercellular Adhesion Molecule 1 (ICAM-1) and Lysosomal Associated Membrane Protein 2 (LAMP-2) protein and mRNA expression levels, respectively, as cellular markers of N-glycosylation (Ferrer et al., Mol Genet Metab 131:424-429, 2020; He et al., J Biol Chem 287:18210-18217, 2012; Eskelinen, Mol Aspects Med 27:495-502, 2006; and Radenkovic et al., Mol Genet Metab 132:27-37, 2021) in 10 PMM-deficient fibroblast lines (P1-P6, P8, P17, P19, and P24) and in control fibroblasts, treated with 10 μM epalrestat (the optimal dose based on PMM enzyme activity as described above).

[3] = test system: child with PMM2-CDG; experiment: Single patient (P1) study: safety and tolerability of oral epalrestat; type: in vivo, human; conditions: for liver elastography Interquartile Range to Median ratio: normal below 25%
Method: (§1) Study design: An open label, single patient (P1) compassionate use study was designed to assess the safety and tolerability of oral epalrestat therapy in a child with PMM2-CDG.
(§2) Patient assessment: Prior to the first dose of epalrestat and at 1, 2, 3, 6, 8, 9, 12 months during treatment, concomitant medications and vital signs were recorded and the patient was evaluated using the NPCRS. In addition, blood was drawn for serum chemistry, hematology, and plasma levels of epalrestat. Urine was collected for polyol measurement at baseline and twice over the course of 12 months of therapy.
(§3) Drug administration: Epalrestat was administered orally, 3 times per day (TID) before meals in a divided dose (0.8 mg/kg/day; 5 mg TID) of epalrestat (Ono Pharmaceuticals, Osaka, Japan) starting on Day 1 of the study.
(§4) Safety and efficacy: Safety measures included vital signs, change in CBC, liver function (INR, bilirubin, transaminases, and albumin) in blood, change in liver elastography, and following the pharmacokinetic profile of epalrestat. The efficacy of epalrestat was studied by clinical follow up (physical exam, NPCRS, ICARS), standard laboratory tests, and transferrin glycoform analysis by mass spectrometry.

[4] = test system: child with PMM2-CDG; experiment: Single patient (P1) study: clinical efficacy (ICARS, NPCRS, BMI, weight); type: in vivo, human
Method: Prospectively collected clinical and laboratory data in 24 PMM2-CDG patients: The genetic, laboratory, metabolic, and clinical data of 24 PMM2-CDG patients were evaluated (TABLES 2A and 2B). Disease severity was assessed by Nijmegen Pediatric CDG Rating Scale (NPCRS), (most severe=82; mild (0-14), moderate (15-25), severe (>26)) (Achouitar et al., J Inherit Metab Dis 34:923-927, 2011; and Martinez-Monseny et al., Ann Neurol 85:740-751, 2019). Patient P1 and twin patients P4 and P5 also were discussed elsewhere (Qian et al., JIMD Rep 56:27-33, 2020; and Jaeken et al., Ped Res 14:179, 1980). P1, enrolled in a single IND clinical trial, was additionally evaluated by the International cooperative ataxia rating scale (ICARS) (Trouillas et al., J Neurol Sci 145:205-211, 1997), which assesses limb ataxia, dysarthria, posture and gait disturbances, and oculomotor disorders (0=normal; 100=most severe). Urinary polyols including sorbitol and mannitol were analyzed by GC/MS in 23 out of the 24 PMM2-CDG patients (patient P6 was deceased). In addition, functional in vitro data was collected from the fibroblasts of P1-P6, P8, P10, P17, P19, and P24.
as §1, §2, §3, §4

[5] = patient P1, throughout the study

CC(/C=C1\SC(=S)N(CC(=O)O)C1=O)=C\c1ccccc1 [epalrestat]
sorbitol concentration, mean ratio after treatment ([1]; 1.4 prior to treatment, p=0.00013): 1.25 | mannitol concentration, mean ratio after treatment ([1]; 1.5 prior to treatment, p=0.064): 1.2 | ICAM-1 mRNA expression [2]: no effect | liver elastography Interquartile Range to Median ratio ([3]; after 1 month of therapy, prior to therapy 14%): 12% | liver elastography Interquartile Range to Median ratio ([3]; at 6 months): 20% | liver elastography Interquartile Range to Median ratio ([3]; at 12 months): 8% | liver elastography ([3]; patient P1): remained normal | adverse events ([3]; patient P1, 0.27 mg/kg three times a day, 12 months): No adverse events | CBC with differential, transaminases, bilirubin, and albumin [3, 5]: remained normal | antithrombin III levels and International normalized ratio (INR) [3, 5]: remained at normal levels | vital signs [3, 5]: remained normal | body mass index (BMI) ([4]; patient P1, 12-month-follow-up, previous trough 14.8 (30th percentile)): 18.5 | ICARS score ([4]; patient P1, epalrestat 0.8 mg/kg/day, within 12 months, from a score of 56): 42 | NPCRS score ([4]; patient P1, months 6, 9, and 12, baseline 21-24): 20-21
